{"source": "patent US8633161B2", "about": "“Therapeutic agents for the treatment of leukemia” (The Ohio State University Research Foundation, priority 2005, dated 2014)", "key": {"PP2A": {"target": "T1, PP2A (Mus musculus, UniProt P63330)", "T1 construct": "endogenous in cells; host or cells: 32Dc13, 32D-BCR/ABL, 32D-BCR/ABL-T315I, 32D-p210 Y253H, BaF3-p210 T315I, K562, primary CML-BC CD34+ and NBM CD34+ cells", "test": "PP2A IP phosphatase assay on lysates of treated cells", "type": "cell-based", "experimental": "PP2A phosphatase assays were carried out using the PP2A IP phosphatase assay kit (Upstate). Briefly, protein lysates (50 μg) in 100 μl of 20 mM HEPES (pH 7.0)/100 mM NaCl, 5 μg of PP2Ac antibody (Upstate), and 25 μl of Protein A-agarose were added to 400 μl of 50 mM Tris (pH 7.0)/100 mM CaCl2, and IPs were carried out at 4° C. for 2 hr. IPs were washed and used in the phosphatase reaction according to the manufacturer's protocol. Specificity of the PP2A assay was assessed by titration with okadaic acid and by ascertaining the absence of PP1a in the PP2A immunoprecipitates (Figure S2A). As internal control, the amount of immunoprecipitated PP2A was also monitored by anti-PP2Ac Western blots (Figure S2B)."}, "BCR/ABL": {"tested_on": "BCR/ABL", "test": "Western blot of BCR/ABL activity (phosphotyrosine) and expression", "type": "cell-based", "conditions": "for EC50: 18-24 hr, read-out: EC50 of downregulation of BCR/ABL; for BCR/ABL activity and expression: HA-PP2Ac-transduced 32D-BCR/ABL cells, okadaic acid 0.25 nM, 1 hr", "method": "Cells (10^7) were lysed in 100 μl of RIPA buffer (150 mM NaCl, 1% NP-40, 0.1% SDS, 50 mM Tris [pH 8.0]) supplemented with 1 mM PMSF, 25 μg/ml aprotinin, 10 μg/ml leupeptin, 100 μg/ml pepstatin A, 5 mM benzamidine, 1 mM Na3VO4, 50 mM NaF, 10 mM β-glycerol-phosphate. After incubation on ice (30 min), lysates were clarified (12,000×g, 15 min, 4° C.), denatured, and subjected to SDS-PAGE and Western blot (Iervolino et al., 2002). The antibodies used were goat polyclonal anti-SET(I2PP2A), -pp32(I1PP2A), and -hnRNP A1 and rabbit polyclonal anti-SHP-1 (Santa Cruz Biotechnology); monoclonal anti-Abl (Ab-3), -c-myc (Ab-2), -phosphotyrosine PY20 (Ab-4), and -pBAD^S112 (Ab-1) (EMD); monoclonal anti-hnRNP A1 (9H10) (G. Dreyfuss, University of Pennsylvania, Philadelphia, Pa.); monoclonal anti-GRB2 and -Rb (BD TransLab Inc.); monoclonal anti-HA (Covance); monoclonal anti-PP2Ac, clone 1D6 (Upstate Inc.); monoclonal anti-FLAG, clone M2 (Sigma); monoclonal anti-pERK^T202/Y204 and rabbit polyclonal anti-pAKT^T308, pSTAT5^Y694, -pJak2^Y1007/1008, -Jak2, -BAD, -Akt, and -ERK1/2 (Cell Signaling Technology Inc.); monoclonal anti-STATS (Invitrogen); rabbit monoclonal anti-pPP2A^Y307 (Epitomics); rabbit polyclonal anti-PR65/A (Calbiochem). IPs were carried out in 20 mM HEPES (pH 7.0), 150 mM NaCl, and 0.2% NP-40 supplemented with protease and phosphatase inhibitors. Lysates were precleared and immunoprecipitated with Ab-coated beads for 3 hr at 4° C. After washings, IPs were subjected to SDS-PAGE and Western blot."}, "NBM CD34+ cells": {"tested_on": "NBM CD34+ cells", "test": "Methylcellulose colony formation of normal CD34+ marrow cells", "type": "cell-based, human", "conditions": "NBM CD34+ cells (normal CD34+ myeloid progenitors)", "experimental": "The Ph^1 K562, the BCR/ABL-expressing 32Dc13 and BaF3 cells, and their derivative lines were maintained in culture in IMDM/10% FBS/2 mM L-glutamine. The SET shRNA-, HA-PP2Ac-, and HA-PP2Ac/FLAG-SET-expressing cells were generated by retroviral infection followed by either antibiotic-mediated selection or FACS-mediated sorting of the GFP+ (green fluorescent protein) cells as described (Perrotti et al., (2002), Nat. Genet. 30:48-58). The following cells were kind gifts: 32D-p210^Y253H (B. Calabretta; TJU, Philadelphia, Pa.); BaF3-p210^T315I (B. Druker; OHSU, Portland, Oreg.); TonB210.1 (G. Daley; Harvard University, Cambridge, Mass.). Frozen samples of CD34+ bone marrow cells (NBM) from different healthy donors were from AllCells LLC (Berkeley, Calif.). […] Erythroid differentiation of K562 and derivative cell lines was assessed by o-Dianisidine (Fast Blue B; Sigma) staining of methylcellulose colonies. […]\nMethylcellulose colony formation assays were carried out by plating 103 or 5×10^4 cells from BCR/ABL cell lines or primary human CML and mouse BMC, respectively, in 0.9% MethoCult H4230 (Stem Cell Technologies Inc.). […] Colonies (>125 μm) from cell lines and primary cells were scored 7 and 15 days later, respectively."}, "[1]": {"tested_on": "32D-BCR/ABL (T315I) cells", "conditions": "for treated mice BCR/ABL negative and alive 18 weeks after cell injection: after 4 weeks from restarting therapy"}, "[2]": {"conditions": "i.p.; cited from earlier work"}, "[3]": {"tested_on": "imatinib-sensitive and -resistant BCR/ABL+ cell lines", "test": "Methylcellulose colony formation of BCR/ABL cell lines", "type": "cell-based", "experimental": "Methylcellulose colony formation assays were carried out by plating 103 or 5×10^4 cells from BCR/ABL cell lines or primary human CML and mouse BMC, respectively, in 0.9% MethoCult H4230 (Stem Cell Technologies Inc.). Where indicated, cells were plated in the presence of rhIL-3 (100 ng/ml) or rhG-CSF (25 ng/ml). Colonies (>125 μm) from cell lines and primary cells were scored 7 and 15 days later, respectively."}, "[4]": {"tested_on": "BCR/ABL-transduced wild-type and SHP-1-deficient CD34+ mouse marrow cells", "test": "Clonogenic assay of BCR/ABL-transduced mouse CD34+ marrow cells", "type": "cell-based", "conditions": "forskolin 40 μM", "experimental": "Normal murine hematopoietic marrow cells were obtained from the femurs of wild-type and SHP-1-deficient “viable moth eaten” mice (The Jackson Laboratory). After hypotonic lysis and Ficoll separation, cells were used for the isolation of the CD34+/lin− fraction (Miltenyi Biotech). […] Pear, University of Pennsylvania, Philadelphia, Pa.). GFP+ (Iervolino et al., 2002) wild-type and SHP-1−/− CD34+ cells (10^6) were treated or not with forskolin (40 μM; 48 hr) and used in clonogenic assay or processed for Western blot. Where indicated, cells were treated with the following: […] Methylcellulose colony formation assays were carried out by plating 103 or 5×10^4 cells from BCR/ABL cell lines or primary human CML and mouse BMC, respectively, in 0.9% MethoCult H4230 (Stem Cell Technologies Inc.). Where indicated, cells were plated in the presence of rhIL-3 (100 ng/ml) or rhG-CSF (25 ng/ml)."}, "[5]": {"tested_on": "BCR/ABL+ cell lines and primary CML-BC CD34+ cells", "test": "Growth and apoptosis (annexin V) in liquid culture of BCR/ABL+ cells", "type": "cell-based", "conditions": "after 48 hr of forskolin treatment"}, "32D-BCR/ABL cells": {"tested_on": "32D-BCR/ABL cells", "conditions": "for mice still alive: 15 weeks postinjection"}, "Akt": {"tested_on": "Akt", "test": "Western blot of phosphorylated and total Akt", "type": "cell-based", "conditions": "okadaic acid (0.25 nM) added to FTY720"}, "[6]": {"conditions": "BCR/ABL+ cell lines and CML-BC CD34+ marrow blasts, exposure 18-24 hr, forskolin 40 μM"}, "[7]": {"conditions": "PP2A-expressing 32D-BCR/ABL cells, 25 μM, 8 hr"}}, "note": "Where a name gives a salt, the structure may show the parent alone. Read-outs that look alike come from different tables or passages of the source. Square brackets hold non-standard residues; d marks the D form. Peptide text beside a SMILES is read from it. * marks the point of attachment. Myristoyl = CCCCCCCCCCCCCC(=O)*; Nle = CCCC[C@H](N)C(=O)O", "data": [{"molecule": "C=C[C@@]1(C)CC(=O)[C@@H]2[C@@]3(C)CCCC(C)(C)[C@@H]3[C@H](O)[C@H](OC(C)=O)[C@@]2(C)O1", "note": "[1,9-dideoxy-forskolin]", "values": [{"measurement": "PP2A activity", "setting": "PP2A; [6]", "result": "enhanced"}, {"measurement": "BCR/ABL phosphorylation", "setting": "BCR/ABL; [6]", "result": "abolished"}, {"measurement": "EC50", "setting": "BCR/ABL; imatinib-resistant cells", "result": 25, "unit": "µM"}, {"measurement": "EC50", "setting": "BCR/ABL; imatinib-sensitive cells", "result": 18, "unit": "µM"}, {"measurement": "decrease in IL-3-dependent clonogenicity / cytokine-driven colony formation", "setting": "NBM CD34+ cells", "result": "≤ 15", "unit": "%"}, {"measurement": "toxic side effects", "setting": "[1]; 8 mg/kg/week i.p., 18 weeks after cell injection", "result": "no signs of toxic side effects"}, {"measurement": "survival and BCR/ABL status (nested RT-PCR, peripheral blood)", "setting": "[1]; 8 mg/kg/week i.p., after 4 weeks of treatment", "result": "all alive and BCR/ABL negative"}, {"measurement": "treated mice BCR/ABL negative and alive 18 weeks after cell injection", "setting": "[1]; of cell-injected mice", "result": 50, "unit": "%"}, {"measurement": "treated mice BCR/ABL negative and alive 18 weeks after cell injection", "setting": "[1]; of treated mice", "result": 100, "unit": "%"}, {"measurement": "mice alive", "setting": "[1]; after 7 weeks of treatment", "result": 70, "unit": "%"}, {"measurement": "remaining mice tested BCR/ABL+", "setting": "[1]; after suspension of treatment", "result": 50, "unit": "%"}, {"measurement": "mice relapsed and died of acute leukemia-like disease", "setting": "[1]; within 4 weeks from the end of treatment", "result": 20, "unit": "%"}, {"measurement": "LD50", "setting": "[2]", "result": 68, "unit": "mg/kg"}]}, {"molecule": "CCCC[C@@H](C=O)NC(=O)[C@H](CC(C)C)NC(=O)[C@H](CC(C)C)NC(C)=O", "note": "[ALLN] (Ac-Leu-Leu-[Nle]-aldehyde)", "values": [{"measurement": "BCR/ABL expression", "setting": "BCR/ABL; [7]", "result": "restored"}, {"measurement": "PP2A-induced BCR/ABL tyrosine dephosphorylation", "setting": "BCR/ABL; [7]", "result": "did not prevent"}]}, {"molecule": "COC[C@@H]([C@H](O)[C@H](O)C(=O)NCC[C@H](C)c1nc(/C=C/C[C@@H]2O[C@]3(C[C@@H](O)[C@@H]2C)O[C@H]([C@H](C[C@H](O)[C@H](C)[C@H](O)[C@H](C)/C=C(C)/C(C)=C/C=C/C(C)=C\\C#N)OC)[C@H](OP(=O)(O)O)C3(C)C)co1)N(C)C", "note": "[calyculin A]", "values": [{"measurement": "BCR/ABL activity and expression", "setting": "BCR/ABL", "result": "restored"}]}, {"molecule": "C=C[C@@]1(C)CC(=O)[C@]2(O)[C@@]3(C)[C@@H](O)CCC(C)(C)[C@@H]3[C@H](O)[C@H](OC(C)=O)[C@@]2(C)O1", "note": "[forskolin]", "values": [{"measurement": "EC50", "setting": "BCR/ABL; imatinib-resistant cells", "result": 25, "unit": "µM"}, {"measurement": "EC50", "setting": "BCR/ABL; imatinib-sensitive cells", "result": 18, "unit": "µM"}, {"measurement": "inhibition of clonogenic potential (average)", "setting": "[3]", "result": 75, "unit": "%"}, {"measurement": "decrease of clonogenic potential", "setting": "[4]", "result": "~70", "unit": "%"}, {"measurement": "percentage of apoptosis (annexin V+ cells)", "setting": "[5]; BCR/ABL+ cell lines", "result": 80, "unit": "%"}, {"measurement": "percentage of apoptosis (annexin V+ cells)", "setting": "[5]; primary CML-BC cells", "result": 95, "unit": "%"}, {"measurement": "mice still alive", "setting": "32D-BCR/ABL cells; control mice that received only forskolin", "result": 100, "unit": "%"}, {"measurement": "mice still alive", "setting": "32D-BCR/ABL cells; forskolin-treated cell-injected mice", "result": 40, "unit": "%"}, {"measurement": "median survival", "setting": "32D-BCR/ABL cells; forskolin-treated mice injected with 32D-BCR/ABL cells", "result": 8, "unit": "weeks"}, {"measurement": "LD50", "setting": "[2]", "result": 67, "unit": "mg/kg"}]}, {"molecule": "Cc1ccc(NC(=O)c2ccc(CN3CCN(C)CC3)cc2)cc1Nc1nccc(-c2cccnc2)n1", "note": "[imatinib, imatinib mesylate]", "values": [{"measurement": "PP2A activity", "setting": "PP2A; 32D-BCR/ABL cells, 1 μM, 24 hr", "result": "restored to normal levels"}, {"measurement": "PP2A activity", "setting": "PP2A; imatinib-resistant BaF3p210 T315I cells", "result": "did not rescue"}]}, {"molecule": "C=C1[C@@H](O)[C@@H]2O[C@]3(CC[C@H](/C=C/[C@@H](C)[C@@H]4CC(C)=C[C@@]5(O[C@H](C[C@@](C)(O)C(=O)O)CC[C@H]5O)O4)O3)CC[C@H]2O[C@@H]1[C@@H](O)C[C@H](C)[C@H]1O[C@@]2(CCCCO2)CC[C@H]1C", "note": "[okadaic acid]", "values": [{"measurement": "BCR/ABL activity and expression", "setting": "BCR/ABL", "result": "restored"}, {"measurement": "apoptosis and effect on PP2A targets (e.g. Akt dephosphorylation) observed with FTY720", "setting": "Akt", "result": "abrogates in part"}]}, {"molecule": "O.O.O.O.O.O.O.O.O.O=C([O-])[C@@H]1[O][Sb]2([O-])([O][Sb]34([OH])[O][C@H]([C@H](O)CO)[C@H]([O]3)[C@H](C(=O)[O-])[O]4)[O][C@H]([C@H](O)CO)[C@@H]1[O]2.[Na+].[Na+].[Na+]", "note": "[sodium stibogluconate]", "values": [{"measurement": "BCR/ABL phosphorylation", "setting": "BCR/ABL; SET shRNA- and HA-PP2A-expressing 32D-BCR/ABL cells", "result": "restored"}]}, {"molecule": "Cn1c(=O)c2[nH]cnc2n(C)c1=O", "note": "[theophylline]", "values": [{"measurement": "BCR/ABL expression/activity", "setting": "BCR/ABL; 100 μM, 24 hr", "result": "did not affect"}]}, {"molecule": "butyryl-forskolin", "values": [{"measurement": "PP2A activity", "setting": "PP2A; [6]", "result": "enhanced"}, {"measurement": "BCR/ABL phosphorylation", "setting": "BCR/ABL; [6]", "result": "abolished"}, {"measurement": "EC50", "setting": "BCR/ABL; imatinib-resistant cells", "result": 25, "unit": "µM"}, {"measurement": "EC50", "setting": "BCR/ABL; imatinib-sensitive cells", "result": 18, "unit": "µM"}]}, {"molecule": "myristoylated-PKI(14-22)-amide (Myristoyl-SGRTGRRNA-NH2; SMILES CCCCCCCCCCCCCC(=O)N[C@@H](CO)C(=O)NCC(=O)N[C@@H](CCCNC(=N)N)C(=O)N[C@H](C(=O)NCC(=O)N[C@@H](CCCNC(=N)N)C(=O)N[C@@H](CCCNC(=N)N)C(=O)N[C@@H](CC(N)=O)C(=O)N[C@@H](C)C(N)=O)[C@@H](C)O; UniProt P61925 14-22, looked up, fragment)", "values": [{"measurement": "forskolin-induced BCR/ABL downregulation", "setting": "BCR/ABL; 4 μM, 24 hr, with forskolin", "result": "did not inhibit"}]}]}
